Assay results from patent publication US20030129629A1, “Methods and compositions for the identification, assessment, prevention, and therapy of human cancers” (Millennium Pharmaceuticals, Inc., priority 2000, published 2003).
Read-outs that look alike come from different tables or passages of the source.

Tests used:
[1] = tested on: 60 cancer cell lines (NCI 60 cancer cell line series); conditions: cited from earlier work
[2] = tested on: 60 cancer cell lines (NCI 60 cancer cell line series); test: NCI-DTP in vitro cancer screen, sulforhodamine B (SRB) growth inhibition, 48 hour exposure; assay type: cell-based, human
Outline: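 NCI-DTP panel of 60 cancer cell lines plated day 0 at line-specific densities, exposed from day 1 to compound at 5 ten-fold-spaced doses in duplicate wells. After 48 h, cell mass stained with sulforhodamine B; −log GI50 derived from dose–response curves, averaged, and classed Low, Medium or High sensitivity.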

Molecule: N.N.[Cl][Pt][Cl] [cisplatin, cis-Diamminedichloroplatinum (II), reference compound]
- −Log (GI50) ([1]; Breast MCF7(I) CL5001): 5.5
- −Log (GI50) ([1]; Ovarian SK-OV-3 CL6011): 5.2
- classification of cell line as Low(1), Medium(2), High(3) sensitivity to compound ([2]; Breast BT-549 CL5013): 2
- classification of cell line as Low(1), Medium(2), High(3) sensitivity to compound ([2]; Breast HS-578T CL5006): 2
- classification of cell line as Low(1), Medium(2), High(3) sensitivity to compound ([2]; Breast MCF7/ADRr CL5002): 2
- classification of cell line as Low(1), Medium(2), High(3) sensitivity to compound ([2]; Breast MDA-MB-231 CL5005): 1
- classification of cell line as Low(1), Medium(2), High(3) sensitivity to compound ([2]; Breast MDA-N CL5012): 2
- classification of cell line as Low(1), Medium(2), High(3) sensitivity to compound ([2]; Breast T-47D CL5014): 1
- classification of cell line as Low(1), Medium(2), High(3) sensitivity to compound ([2]; CNS SF-268 CL12014): 3
- classification of cell line as Low(1), Medium(2), High(3) sensitivity to compound ([2]; CNS SF-539 CL12016): 2
- classification of cell line as Low(1), Medium(2), High(3) sensitivity to compound ([2]; CNS SNB-75(I) CL12005): 2
- classification of cell line as Low(1), Medium(2), High(3) sensitivity to compound ([2]; CNS U251(I) CL12009): 2
- classification of cell line as Low(1), Medium(2), High(3) sensitivity to compound ([2]; Colon COLO-250 CL4010): 1
- classification of cell line as Low(1), Medium(2), High(3) sensitivity to compound ([2]; Colon HCC-2998 CL4002): 2
- classification of cell line as Low(1), Medium(2), High(3) sensitivity to compound ([2]; Colon HCT-15 CL4015): 1
- classification of cell line as Low(1), Medium(2), High(3) sensitivity to compound ([2]; Colon HT29(I) CL4001): 1
- classification of cell line as Low(1), Medium(2), High(3) sensitivity to compound ([2]; Colon SW-620 CL4009): 2
- classification of cell line as Low(1), Medium(2), High(3) sensitivity to compound ([2]; Leukemia HL-60(I) CL7008): 3
- classification of cell line as Low(1), Medium(2), High(3) sensitivity to compound ([2]; Leukemia K562(I) CL7005): 2
- classification of cell line as Low(1), Medium(2), High(3) sensitivity to compound ([2]; Leukemia RPMI-8226(I) CL7010): 2
- classification of cell line as Low(1), Medium(2), High(3) sensitivity to compound ([2]; Melanoma LOX IMVI CL10001): 3
- classification of cell line as Low(1), Medium(2), High(3) sensitivity to compound ([2]; Melanoma M14 CL10014): 2
- classification of cell line as Low(1), Medium(2), High(3) sensitivity to compound ([2]; Melanoma SK-MEL-28 CL10008): 2
- sensitivity classification Low(1)/Medium(2)/High(3) ([2]; NSCLC NCI-H23(I) CL1001): 3
- sensitivity classification Low(1)/Medium(2)/High(3) ([2]; NSCLC NCI-H460 CL1021): 3
- sensitivity classification Low(1)/Medium(2)/High(3) ([2]; NSCLC NCI-H522 CL1003): 2
- sensitivity classification Low(1)/Medium(2)/High(3) ([2]; Ovarian IGROV1 CL6010): 2
- sensitivity classification Low(1)/Medium(2)/High(3) ([2]; Ovarian OVCAR-4 CL6002): 2
- sensitivity classification Low(1)/Medium(2)/High(3) ([2]; Ovarian OVCAR-5 CL6003): 2
- sensitivity classification Low(1)/Medium(2)/High(3) ([2]; Ovarian OVCAR-8 CL6005): 2
- sensitivity classification Low(1)/Medium(2)/High(3) ([2]; Prostate DU-145 CL11003): 2
- sensitivity classification Low(1)/Medium(2)/High(3) ([2]; Renal A498 CL9013): 1
- sensitivity classification Low(1)/Medium(2)/High(3) ([2]; Renal RXF-393 CL9016): 2
- sensitivity classification Low(1)/Medium(2)/High(3) ([2]; Renal UO-31 CL9004): 2

Molecule: Bleomycin
- −Log (GI50) ([1]; CNS SF-539 CL12016): 7.7
- −Log (GI50) ([1]; Melanoma LOX IMVI CL10001): 6.8
- −Log (GI50) ([1]; Ovarian OVCAR-3 CL6001): 5.3
- classification of cell line as Low(1), Medium(2), High(3) sensitivity to compound ([2]; Breast MCF7(I) CL5001): 2
- classification of cell line as Low(1), Medium(2), High(3) sensitivity to compound ([2]; Breast MCF7/ADRr CL5002): 2
- classification of cell line as Low(1), Medium(2), High(3) sensitivity to compound ([2]; Breast MDA-MB-231 CL5005): 1
- classification of cell line as Low(1), Medium(2), High(3) sensitivity to compound ([2]; Breast MDA-MB-435 CL5011): 1
- classification of cell line as Low(1), Medium(2), High(3) sensitivity to compound ([2]; Breast MDA-N CL5012): 1
- classification of cell line as Low(1), Medium(2), High(3) sensitivity to compound ([2]; Breast T-47D CL5014): 2
- classification of cell line as Low(1), Medium(2), High(3) sensitivity to compound ([2]; CNS SF-268 CL12014): 2
- classification of cell line as Low(1), Medium(2), High(3) sensitivity to compound ([2]; CNS SF-295 CL12015): 3
- classification of cell line as Low(1), Medium(2), High(3) sensitivity to compound ([2]; CNS SF-539 CL12016): 3
- classification of cell line as Low(1), Medium(2), High(3) sensitivity to compound ([2]; CNS SNB-19 CL12002): 2
- classification of cell line as Low(1), Medium(2), High(3) sensitivity to compound ([2]; CNS SNB-75(I) CL12005): 2
- classification of cell line as Low(1), Medium(2), High(3) sensitivity to compound ([2]; CNS U251(I) CL12009): 2
- classification of cell line as Low(1), Medium(2), High(3) sensitivity to compound ([2]; Colon COLO-250 CL4010): 2
- classification of cell line as Low(1), Medium(2), High(3) sensitivity to compound ([2]; Colon HCT-15 CL4015): 2
- classification of cell line as Low(1), Medium(2), High(3) sensitivity to compound ([2]; Colon HCT-116 CL4003): 2
- classification of cell line as Low(1), Medium(2), High(3) sensitivity to compound ([2]; Colon HT29(I) CL4001): 1
- classification of cell line as Low(1), Medium(2), High(3) sensitivity to compound ([2]; Colon KM12 CL4017): 1
- classification of cell line as Low(1), Medium(2), High(3) sensitivity to compound ([2]; Colon SW-620 CL4009): 2
- classification of cell line as Low(1), Medium(2), High(3) sensitivity to compound ([2]; Leukemia CCRF-CEM(I) CL7003): 2
- classification of cell line as Low(1), Medium(2), High(3) sensitivity to compound ([2]; Leukemia HL-60(I) CL7008): 2
- classification of cell line as Low(1), Medium(2), High(3) sensitivity to compound ([2]; Leukemia K562(I) CL7005): 2
- classification of cell line as Low(1), Medium(2), High(3) sensitivity to compound ([2]; Leukemia MOLT-4 CL7006): 2
- classification of cell line as Low(1), Medium(2), High(3) sensitivity to compound ([2]; Leukemia SR CL7019): 3
- classification of cell line as Low(1), Medium(2), High(3) sensitivity to compound ([2]; Melanoma LOX IMVI CL10001): 3
- classification of cell line as Low(1), Medium(2), High(3) sensitivity to compound ([2]; Melanoma M14 CL10014): 2
- classification of cell line as Low(1), Medium(2), High(3) sensitivity to compound ([2]; Melanoma MALME-3M CL10002): 2
- classification of cell line as Low(1), Medium(2), High(3) sensitivity to compound ([2]; Melanoma SK-MEL-2 CL10005): 1
- classification of cell line as Low(1), Medium(2), High(3) sensitivity to compound ([2]; Melanoma SK-MEL-28 CL10008): 1
- sensitivity classification Low(1)/Medium(2)/High(3) ([2]; NSCLC NCI-H23(I) CL1001): 2
- sensitivity classification Low(1)/Medium(2)/High(3) ([2]; NSCLC NCI-H332M CL1017): 1
- sensitivity classification Low(1)/Medium(2)/High(3) ([2]; NSCLC NCI-H522 CL1003): 2
- sensitivity classification Low(1)/Medium(2)/High(3) ([2]; Ovarian IGROV1 CL6010): 2
- sensitivity classification Low(1)/Medium(2)/High(3) ([2]; Ovarian OVCAR-3 CL6001): 2
- sensitivity classification Low(1)/Medium(2)/High(3) ([2]; Ovarian OVCAR-4 CL6002): 2
- sensitivity classification Low(1)/Medium(2)/High(3) ([2]; Ovarian OVCAR-5 CL6003): 2
- sensitivity classification Low(1)/Medium(2)/High(3) ([2]; Ovarian OVCAR-8 CL6005): 2
- sensitivity classification Low(1)/Medium(2)/High(3) ([2]; Ovarian SK-OV-3 CL6011): 2
- sensitivity classification Low(1)/Medium(2)/High(3) ([2]; Prostate DU-145 CL11003): 2
- sensitivity classification Low(1)/Medium(2)/High(3) ([2]; Prostate PC-3(I) CL11001): 2
- sensitivity classification Low(1)/Medium(2)/High(3) ([2]; Renal 786-0 CL9018): 2
- sensitivity classification Low(1)/Medium(2)/High(3) ([2]; Renal A498 CL9013): 2
- sensitivity classification Low(1)/Medium(2)/High(3) ([2]; Renal ACHN CL9023): 3
- sensitivity classification Low(1)/Medium(2)/High(3) ([2]; Renal SN12C CL9008): 2
- sensitivity classification Low(1)/Medium(2)/High(3) ([2]; Renal TK10 CL9024): 1
